Article PMC3435281 (PLoS ONE, 2012)
“Also recorded” adds a separate entry of the source.

Legend:
[1] = system: human 101L-hepatoma cells; assay: Duration of DRE-luciferase activation; format: cell-based; conditions: for luciferase activity: 100 nM
[2] = system: naïve T-cells with allogeneic BALB/C pDCs; assay: pDC/T cell coculture, qPCR of IDO and FoxP3; format: cell-based, mouse; conditions: 5 days, SU5416 500 nM, TCDD 10 nM
Text: An important role for the AHR in the immune system, and specifically T-cell differentiation, has been recognized and continues to be characterized in the literature, [7]. Some ligands of the AHR have the ability to enhance Treg differentiation from naïve T-cells (TCDD, kynurenine), while others direct differentiation towards Th17 effector cells (FICZ). […] IDO has long been known to play a role in Treg generation, and may be central to the mechanism of Dendritic Cell (DC)-directed Treg generation. […] As described in the Methods, naïve T-cells were sorted using magnetic bead separation, and placed in culture for 5 days with allogeneic pDCs separated from BALB/C mice. […] After 5 days, cells were collected and mRNA harvested for qPCR analysis of IDO and FoxP3. […] Naïve T cells were placed in culture with IL-6 and TGF-β, and harvested after 3 days of culture.
A. Spleens were harvested from mice and processed in the standard fashion. […] Same assay as A, but mRNA for CYP1B1 and IDO were measured. C.
Naive CD4^+CD25^− T cells were isolated from WT and AHR-null mice and cocultured with BALB/cJ pDCs isolated using the Miltenyi Mouse pDC Isolation Kit (Miltenyi Biotec) at a ratio of 20∶1 or 10∶1 as previously described (13). […] On day 5, cells were harvested and subjected to qPCR analysis.

[3] = system: CYP1A1 (induction through AHR^d); assay: CYP1A1 qPCR in AHR^d splenocytes; conditions: AHR^d congenic on a C57BL/6J background, mouse
Protocol: As the above in vitro experiments were performed in cell lines, we next utilized AHR^b (C57BL/6J) and AHR^d congenic mice (on a C57BL/6J background). […] Normalized data was chosen to allow comparison of CYP1A1 upregulation to its maximum in AHR^b versus AHR^d mice.
Figure 4 Splenocytes from wild-type and AHR^d mice analyzed by qPCR for CYP1A1. […] After 4 hours they were analyzed by qPCR for CYP1A1 analysis. The curves are normalized from 0 to 100% response. […] Cos-1 cells were transfected with an AHR containing the same point mutation (valine for alanine) thought to be responsible for the low affinity of the AHR^d isoform compared to AHR^b, and compared to the wild-type AHR response. These cells also harbor a luciferase gene next to the DRE. C. Cos-1 cells were exposed to TCDD. […]
Spleen was harvested from mice at the time of euthanasia and single cell suspensions were made. […] The relative quantitation PCR for IDO1 (Mm00492586-m1) and GAPDH (4352339-E0806018) were performed in the Applied Biosystems 7900HT Fast Real-Time PCR System (Applied Biosystems), and TaqMan Universal PCR Master Mix (Applied Biosystems) was used as a reaction reagent. The relative quantitation PCR for Foxp3, CYP1A1, CYP1B1, and GAPDH were processed by the Bio-Rad iCycler (Bio-Rad) and iQ SYBR Green Supermix ([…]) was used as the reaction reagent.

SMILES | luciferase activity as percent of TCDD response (1 nM) [1] | luciferase activity ([1]; 4 hours) | luciferase activity ([1]; 24 hours) | FoxP3 mRNA [2] | IDO mRNA [2] | duration of DRE-binding ([1]; 1 nM, 4 to 96 hours) | EC50 at 4 h [3]
Cc1cc(C)c(C=C2C(=O)Nc3ccccc32)[nH]1 [SU5416, 3-(3,5-dimethyl-1H-pyrrol-2-ylmethylene)-1,3-dihydro-indole-2-one] | ≤ 20% | has activity | no longer causes luciferase activity | generated; also recorded: to a greater extent than TCDD | generated; also recorded: to a greater extent than TCDD |  | 
Clc1cc2c(cc1Cl)Oc1cc(Cl)c(Cl)cc1O2 [TCDD, 2,3,7,8-tetrachlorodibenzo-p-dioxin] |  |  |  | upregulation was also seen | upregulation was also seen | long duration DRE-binding | 1.89 nM
